Assay results: patent US20110014174A1, “Lysozyme, A Novel Vasodilator of Sepsis that can be inhibited by a Peroxidase and Hydroxyl Radical Scavengers” (UNIVERSITY OF MANITOBA, priority 2007, published 2011)

Key:
[1] = system: phenylephrine contracted canine carotid artery ring preparation; test: Contraction force and vasorelaxation in phenylephrine contracted canine carotid artery ring preparation; conditions: before Lzm-S
[2] = system: Lzm-S-induced carotid artery vasodilation; test: Prevention of Lzm-S-induced vasodilation by pretreatment agents in the carotid artery ring preparation; set-up: species or system canine; conditions: for contraction after Lzm-S relative to the post-indomethacin plateau: indomethacin 10^−6 mol/L treated group (n=5); for inhibition of Lzm-S-induced vasodilation (words): pretreatment with the agent, human Lzm-S 6.7×10^−7 mol/L, phenylephrine contracted ring; for contraction after Lzm-S, % of the butanol-plateau: n-butanol pretreated

SMILES	force over 30 minutes when indomethacin was added ([1]; indomethacin 10^−6 mol/L after phenylephrine)	contraction after Lzm-S relative to the post-indomethacin plateau ([2]; 5 minutes)	contraction after Lzm-S relative to the post-indomethacin plateau ([2]; 15 minutes)	contraction after Lzm-S relative to the post-indomethacin plateau ([2]; 30 minutes)	inhibition of Lzm-S-induced vasodilation (words) [2]	force after the alcohol was added, % of the phenylephrine-plateau response ([1]; n-butanol (10^−7 mol/L))	contraction after Lzm-S, % of the butanol-plateau ([2]; 5 minutes)	contraction after Lzm-S, % of the butanol-plateau ([2]; 15 minutes)	contraction after Lzm-S, % of the butanol-plateau ([2]; 30 minutes)
COc1ccc2c(c1)c(CC(=O)O)c(C)n2C(=O)c1ccc(Cl)cc1 [indomethacin]	5.6±0.5 grams	79±11%	57±24%	39±25%	did not Prevent Vasodilation				
CCCCO [n-butanol]					no inhibitory effect	61±17%	84±9%	62±21%	23±27%
